Like-named read-outs stand apart in the source and are kept apart here.
Experiments:
[1] = test system: genotype 1b (Con1) stable HCV replicon in Huh-7-derived cells; test: Stable subgenomic HCV replicon EC50, genotype 1b (Renilla luciferase); type: cell-based, hepatitis C virus; settings: stable replicon genotype 1b, 72 h, read-out: EC50 1B RLUC
Method in brief: (§1)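 Compounds, three-fold diluted, were applied to Huh-7-derived cells harbouring luciferase replicons (genotype 1a H77, 1b Con1, 2a JFH-1, 4a ED43, with strain-specific adaptive mutations). Seventy-two hours later, intracellular replication was gauged by Renilla luciferase activity and EC50 derived by regression.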

[2] = test system: genotype 3a (S52) wild type transient HCV replicon in Huh-7-derived cells; test: Transient-transfected HCV replicon EC50, genotype 3a wild type; type: cell-based, hepatitis C virus; settings: transient-transfected replicon genotype 3a wild type, 72 h; read-out: EC50 3A WT
[3] = test system: genotype 4a (ED43) stable HCV replicon in Huh-7-derived cells; test: Stable subgenomic HCV replicon EC50, genotype 4a (Renilla luciferase); type: cell-based, hepatitis C virus; settings: 72 h, read-out: EC50 4A RLUC
Method in brief: as §1

[4] = molecular target: HCV NS3 protease domain genotype 1b (Hepatitis C virus genotype 1b (isolate Con1), UniProt Q9WMX2, E1202G); test: Ki determination, NS3 protease genotype 1b (fluorogenic depsipeptide substrate); type: biochemical; settings: 50 pM enzyme, NS4A peptide
Chain of HCV NS3 protease domain genotype 1b (Q9WMX2 1027-1208 E1202G): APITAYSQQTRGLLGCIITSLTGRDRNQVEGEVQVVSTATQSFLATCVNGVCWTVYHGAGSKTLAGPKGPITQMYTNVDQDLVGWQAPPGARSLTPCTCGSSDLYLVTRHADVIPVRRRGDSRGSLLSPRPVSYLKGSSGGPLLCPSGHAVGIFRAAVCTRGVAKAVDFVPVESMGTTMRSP
Experimental: Purified NS3 protease domain (amino acids 1-181) of the genotype 1b and 3a virus were generated as above.
Reactions were run at room temperature in buffer consisting of 50 mM HEPES, 40% glycerol, 0.05% Triton X-100, 10 mM DTT, and 10% DMSO. The final assay solutions contained 50 pM NS3 genotype 1 b protease or 200 pM genotype 3a protease, 20 μM NS4A peptide, and 4 μM substrate (genotype 1b) or 2 μM substrate (genotype 3a). Inhibitor concentrations varied from 100 nM to 5 pM in 3-fold dilutions, and no-inhibitor controls were included.
Compound dilutions were made in DMSO at 20× final concentration. Reaction mixtures were prepared in 96-well assay plates. A solution of enzyme and NS4A peptide in assay buffer (25 μL volume with both reagents at 4× final concentration) was mixed with 45 μL assay buffer and 5 μL of either inhibitor or DMSO, and pre-incubated at room temperature for 1 hour. The reaction was started by addition of 25 μL substrate solution at 4× final concentration. Plates were mixed vigorously for 5-10 seconds and reactions were allowed to proceed for 90 minutes, fluorescence was measured every 30 s between 90 and 120 minutes reaction time using a Tecan InfiniTe M1000 or PerkinElmer Envision multimode plate reader with an excitation wavelength of 340 nm and an emission wavelength of 490 nm.
To determine the Ki, rates were plotted as a function of inhibitor concentration, and the data were fit with equation 1 (Morrison, J. F., Biochimica et Biophysica Acta 1969, 185, 269-286) to calculate Ki^app using GraphPad Prism 5. […] Ki was calculated from Ki^app/(1+[[S]/Km]).

[5] = test system: genotype 3a (S52) stable HCV replicon in Huh-7-derived cells; test: Stable subgenomic HCV replicon EC50, genotype 3a (Renilla luciferase); type: cell-based, hepatitis C virus; settings: 72 h, read-out: EC50 3A RLUC
[6] = test system: genotype 1a (H77) wild type transient HCV replicon in Huh-7-derived cells; test: Transient-transfected HCV replicon EC50, genotype 1a wild type; type: cell-based, hepatitis C virus; settings: transient-transfected replicon genotype 1a wild type, 72 h, read-out: EC50 1A WT
[7] = test system: genotype 1a (H77) stable HCV replicon in Huh-7-derived cells; test: Stable subgenomic HCV replicon EC50, genotype 1a (Renilla luciferase); type: cell-based, hepatitis C virus; settings: stable replicon genotype 1a, 72 h, read-out: EC50 1A RLUC
Method in brief: as §1

[8] = test system: genotype 1b (Con1) wild type transient HCV replicon in Huh-7-derived cells; test: Transient-transfected HCV replicon EC50, genotype 1b wild type; type: cell-based, hepatitis C virus; settings: transient-transfected replicon genotype 1b wild type, 72 h, read-out: EC50 1B WT
[9] = test system: genotype 1a NS3/4a protease inhibitor resistant variant R155K transient HCV replicon in Huh-7-derived cells; test: Transient-transfected HCV replicon EC50, genotype 1a R155K; type: cell-based, hepatitis C virus; settings: 72 h
[10] = test system: genotype 2a (JFH-1) stable HCV replicon in Huh-7-derived cells; test: Stable subgenomic HCV replicon EC50, genotype 2a (Renilla luciferase); type: cell-based, hepatitis C virus; settings: stable replicon genotype 2a, 72 h, read-out: EC50 2A RLUC
Method in brief: as §1

[11] = molecular target: HCV NS3 protease domain genotype 3a (Hepatitis C virus genotype 3a, UniProt Q81258); test: Ki determination, NS3 protease genotype 3a (fluorogenic depsipeptide substrate); type: biochemical; settings: 200 pM enzyme, NS4A peptide
Chain of HCV NS3 protease domain genotype 3a (Q81258 whole entry, looked up, the tested form may be a part): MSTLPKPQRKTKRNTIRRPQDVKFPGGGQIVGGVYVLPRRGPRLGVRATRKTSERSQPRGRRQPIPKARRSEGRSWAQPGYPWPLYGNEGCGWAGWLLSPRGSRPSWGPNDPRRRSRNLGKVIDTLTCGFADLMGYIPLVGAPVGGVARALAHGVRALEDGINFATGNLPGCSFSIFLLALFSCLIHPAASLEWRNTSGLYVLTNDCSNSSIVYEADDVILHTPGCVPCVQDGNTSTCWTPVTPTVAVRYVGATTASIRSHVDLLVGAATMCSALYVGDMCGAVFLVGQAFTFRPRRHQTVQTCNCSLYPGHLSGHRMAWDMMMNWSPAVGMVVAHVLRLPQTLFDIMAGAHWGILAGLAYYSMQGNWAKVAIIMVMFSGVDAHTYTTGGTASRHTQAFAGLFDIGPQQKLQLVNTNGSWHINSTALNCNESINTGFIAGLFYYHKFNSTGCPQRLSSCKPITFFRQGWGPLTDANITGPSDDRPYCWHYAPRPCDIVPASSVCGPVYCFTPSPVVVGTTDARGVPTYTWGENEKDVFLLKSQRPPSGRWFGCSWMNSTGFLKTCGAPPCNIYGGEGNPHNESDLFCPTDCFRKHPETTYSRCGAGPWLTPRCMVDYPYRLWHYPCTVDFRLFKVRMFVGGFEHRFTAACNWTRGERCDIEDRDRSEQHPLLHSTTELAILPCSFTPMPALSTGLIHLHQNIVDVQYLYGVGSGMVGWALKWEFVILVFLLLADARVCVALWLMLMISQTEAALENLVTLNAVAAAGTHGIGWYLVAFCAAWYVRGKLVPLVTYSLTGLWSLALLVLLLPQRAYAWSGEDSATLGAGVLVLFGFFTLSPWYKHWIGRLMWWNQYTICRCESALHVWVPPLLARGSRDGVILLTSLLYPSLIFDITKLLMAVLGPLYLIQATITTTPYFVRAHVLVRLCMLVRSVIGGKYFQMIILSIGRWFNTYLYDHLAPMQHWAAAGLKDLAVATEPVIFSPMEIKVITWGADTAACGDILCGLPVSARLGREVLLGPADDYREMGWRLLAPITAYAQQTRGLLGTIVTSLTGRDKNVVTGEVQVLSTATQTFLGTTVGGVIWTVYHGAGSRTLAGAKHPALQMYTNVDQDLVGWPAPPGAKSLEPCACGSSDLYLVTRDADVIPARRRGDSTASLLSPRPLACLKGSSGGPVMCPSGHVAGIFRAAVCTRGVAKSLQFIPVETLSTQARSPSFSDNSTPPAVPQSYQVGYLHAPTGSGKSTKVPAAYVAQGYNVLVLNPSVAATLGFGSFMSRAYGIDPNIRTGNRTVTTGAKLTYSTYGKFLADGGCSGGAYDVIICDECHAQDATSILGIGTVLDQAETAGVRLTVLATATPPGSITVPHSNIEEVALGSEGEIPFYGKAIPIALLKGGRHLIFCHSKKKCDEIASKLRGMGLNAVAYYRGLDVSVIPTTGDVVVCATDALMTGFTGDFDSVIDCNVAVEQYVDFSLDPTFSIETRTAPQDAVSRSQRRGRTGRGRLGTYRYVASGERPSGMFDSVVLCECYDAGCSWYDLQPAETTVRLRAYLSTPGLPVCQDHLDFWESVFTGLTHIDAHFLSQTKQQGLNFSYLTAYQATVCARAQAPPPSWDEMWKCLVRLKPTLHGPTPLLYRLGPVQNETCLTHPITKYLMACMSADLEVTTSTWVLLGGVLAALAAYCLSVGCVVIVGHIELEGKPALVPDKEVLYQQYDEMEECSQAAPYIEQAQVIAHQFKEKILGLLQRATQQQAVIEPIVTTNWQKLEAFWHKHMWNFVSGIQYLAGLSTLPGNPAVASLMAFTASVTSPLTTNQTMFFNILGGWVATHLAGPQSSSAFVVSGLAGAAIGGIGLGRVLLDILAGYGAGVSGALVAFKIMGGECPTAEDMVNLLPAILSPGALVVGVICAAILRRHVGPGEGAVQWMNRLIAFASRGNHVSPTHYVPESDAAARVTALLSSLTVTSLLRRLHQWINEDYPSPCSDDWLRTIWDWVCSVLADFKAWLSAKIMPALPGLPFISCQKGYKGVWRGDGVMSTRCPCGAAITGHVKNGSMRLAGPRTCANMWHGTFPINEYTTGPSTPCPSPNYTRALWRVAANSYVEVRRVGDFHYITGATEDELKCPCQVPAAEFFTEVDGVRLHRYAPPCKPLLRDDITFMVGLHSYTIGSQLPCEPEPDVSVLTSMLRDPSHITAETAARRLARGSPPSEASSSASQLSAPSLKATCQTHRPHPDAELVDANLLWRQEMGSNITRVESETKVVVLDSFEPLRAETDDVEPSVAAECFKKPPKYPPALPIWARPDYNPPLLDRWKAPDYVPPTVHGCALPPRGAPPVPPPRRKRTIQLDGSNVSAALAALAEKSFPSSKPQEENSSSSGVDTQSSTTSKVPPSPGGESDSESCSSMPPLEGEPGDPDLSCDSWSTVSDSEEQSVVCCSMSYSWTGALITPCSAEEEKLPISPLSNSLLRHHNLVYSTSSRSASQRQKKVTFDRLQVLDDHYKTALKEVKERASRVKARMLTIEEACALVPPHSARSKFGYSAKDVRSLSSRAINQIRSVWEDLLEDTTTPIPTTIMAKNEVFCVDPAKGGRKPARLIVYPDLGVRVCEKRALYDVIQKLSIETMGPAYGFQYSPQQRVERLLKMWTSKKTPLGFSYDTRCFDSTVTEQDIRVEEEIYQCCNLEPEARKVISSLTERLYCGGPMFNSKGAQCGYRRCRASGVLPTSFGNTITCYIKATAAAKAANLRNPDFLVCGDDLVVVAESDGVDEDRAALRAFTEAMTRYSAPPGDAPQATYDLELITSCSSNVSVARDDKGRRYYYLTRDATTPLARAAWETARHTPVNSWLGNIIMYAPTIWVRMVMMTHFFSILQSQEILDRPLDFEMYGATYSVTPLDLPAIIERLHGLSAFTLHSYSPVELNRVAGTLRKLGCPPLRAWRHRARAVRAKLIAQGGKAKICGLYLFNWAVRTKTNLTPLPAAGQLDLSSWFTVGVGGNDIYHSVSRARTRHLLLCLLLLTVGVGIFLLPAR
Method in brief: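 The NS3 protease domain (aa 1-181) with 20 μM NS4A peptide was used at 50 pM with 4 μM substrate (1b) or at 200 pM with 2 μM substrate (3a). Inhibitors (100 nM-5 pM) were pre-incubated 1 h at room temperature in HEPES/glycerol/DTT buffer with 10% DMSO. Steady-state rates (90-120 min) gave Ki via the Morrison equation, corrected for active enzyme and [S]/Km.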

[12] = test system: genotype 1b NS3/4a protease inhibitor resistant variant D168A transient HCV replicon in Huh-7-derived cells; test: Transient-transfected HCV replicon EC50, genotype 1b D168A; type: cell-based, hepatitis C virus; settings: 72 h
[13] = stable replicon genotype 4a, Renilla luciferase
[14] = stable replicon genotype 3a, Renilla luciferase
[15] = transient-transfected replicon genotype 1a R155K resistant variant, read-out: EC50 1A R155K
[16] = Hepatitis C virus, read-out: EC50 1A R155K, transient-transfected replicon genotype 1a R155K resistant variant, 72 h
[17] = Hepatitis C virus, read-out: EC50 1B D168A, transient-transfected replicon genotype 1b D168A resistant variant, 72 h

| Compound | EC50 [1] [nM] | EC50 [3, 13] [nM] | Ki [4] [nM] | EC50 [5, 14] [nM] | EC50 [6] [nM] | EC50 [7] [nM] | EC50 [8] [nM] | EC50 [9, 15] [nM] | EC50 [10] [nM] | Ki [11] [nM] | EC50 ([1]; Hepatitis C virus) [nM] | EC50 ([3]; Hepatitis C virus) [nM] | EC50 ([5]; Hepatitis C virus) [nM] | EC50 ([6]; Hepatitis C virus) [nM] | EC50 ([7]; Hepatitis C virus) [nM] | EC50 ([8]; Hepatitis C virus) [nM] | EC50 [9, 16] [nM] | EC50 ([10]; Hepatitis C virus) [nM] | EC50 [12, 17] [nM] | also measured |
| --- | --- | --- | --- | --- | --- | --- | --- | --- | --- | --- | --- | --- | --- | --- | --- | --- | --- | --- | --- | --- |
| (1aR,5S,8S,9S,10R,22aR)-5-tert-butyl-N-[(1R,2R)-2-(difluoromethyl)-1-{[(1-methylcyclopropyl)sulfonyl]carbamoyl}cyclopropyl]-8-fluoro-14-methoxy-9-methyl-3,6-dioxo-1,1a,3,4,5,6,9,10,18,19,20,21,22,22a-tetradecahydro-8H-7,10-methanocyclopropa[18,19][1,10,3,6]dioxadiazacyclononadecino[1,12-b]quinoxaline-8-carboxamide [Example 47] | 3.6 | 4.2 | 0.07 | 58 | 5.4 | 3.8 | 2 | 6.1 | 12 | 0.19 | – | – | – | – | – | – | – | – | – | EC50 [2]: 17 nM |
| COc1ccc2nc3c(nc2c1)O[C@H]1CN(C(=O)[C@H](C(C)(C)C)NC(=O)O[C@@H]2[C@H]4CC[C@H](C4)[C@H]2CCCCC3)[C@H](C(=O)N[C@]2(C(=O)NS(=O)(=O)C3CC3)C[C@H]2C(F)F)[C@@H]1C [Example 26, (1R,4S,4aR,8S,11S,12S,13R,25aR)-8-tert-butyl-N-[(1R,2R)-1-[(cyclopropylsulfonyl)carbamoyl]-2-(difluoromethyl)cyclopropyl]-17-methoxy-12-methyl-6,9-dioxo-2,3,4,4a,6,7,8,9,12,13,21,22,23,24,25,25a-hexadecahydro-1H,11H-1,4:10,13-dimethanoquinoxalino[2,3-k][1,10,3,6]benzodioxadiazacyclononadecine-11-carboxamide] | – | – | 0.05 | – | – | – | – | – | – | 0.17 | 4.3 | 6 | 297 | 3.6 | 6.3 | 1.9 | 12 | 12 | 109 | – |
| COc1ccc2nc3c(nc2c1)O[C@H]1CN(C(=O)[C@H](C(C)(C)C)NC(=O)O[C@@H]2C[C@H]2CCCCC3)[C@H](C(=O)N[C@]2(C(=O)NS(=O)(=O)C3(C)CC3)C[C@H]2C(F)F)[C@@H]1C1CC1 [Example 31, (1aR,5S,8S,9S,10R,22aR)-5-tert-butyl-9-cyclopropyl-N-[(1R,2R)-2-(difluoromethyl)-1-{[(1-methylcyclopropyl)sulfonyl]carbamoyl}cyclopropyl]-14-methoxy-3,6-dioxo-1,1a,3,4,5,6,9,10,18,19,20,21,22,22a-tetradecahydro-8H-7,10-methanocyclopropa[18,19][1,10,3,6]dioxadiazacyclononadecino[11,12-b]quinoxaline-8-carboxamide] | 18 | 20 | 0.13 | 2070 | 27 | 40 | 6.6 | 154 | 63 | 4.9 | – | – | – | – | – | – | – | – | – | EC50 ([12]; transient-transfected replicon genotype 1b D168A resistant variant, read-out: EC50 1B D168A): 805 nM |
| CC[C@@H]1[C@@H]2CN(C(=O)[C@H](C3CCCC3)NC(=O)O[C@@H]3C[C@H]3CCCCCc3nc4ccc(OC)cc4nc3O2)[C@@H]1C(=O)N[C@]1(C(=O)NS(=O)(=O)C2(C)CC2)C[C@H]1C(F)F [Example 14, (1aR,5S,8S,9S,10R,22aR)-5-cyclopentyl-N-[(1R,2R)-2-(difluoromethyl)-1-{[(1-methylcyclopropyl)sulfonyl]carbamoyl}cyclopropyl]-9-ethyl-14-methoxy-3,6-dioxo-1,1a,3,4,5,6,9,10,18,19,20,21,22,22a-tetradecahydro-8H-7,10-methanocyclopropa[18,19][1,10,3,6]dioxadiazacyclononadecino[11,12-b]quinoxaline-8-carboxamide] | – | – | 0.07 | – | – | – | – | – | – | 0.24 | 6.8 | 7.3 | 308 | 7.4 | 9.7 | 4 | 21 | 7 | 99 | – |

Source: patent US10335409B2 (priority 2012, dated 2019)
